Measurements taken from US9259418B2 (priority 2008, dated 2016).

Assays:
PC12 cells [1] = test: In vitro neuroprotection assay, serum-free medium induced apoptosis, MTT test; assay type: cell-based, rat; conditions: serum starved PC12 cells, drugs alone or as DRA + MAO inhibitor combination
Protocol: (§1) For neuroprotection experiment cells were plated (1 or 0.5×10^5 Cells per well) on poly-L-lysine (Sigma) coated 96 wells tissue culture plates. Twenty four hours after plating the medium was exchanged with fresh growth medium with or without the tested drugs in the absence or presence of stressor. Cell cytotoxicity was induced by either serum starvation or Methyl-4phenylpyridium (MPP^+), 250 uM and 125 uM for PC12 and SK cells respectively. Drugs were added in different concentration alone and in combination, 30 minutes prior to the insult for a subsequent 48 or 72 hours. Neuronal cell injury was evaluated by a colorimetric assay for mitochondrial function using the MTT test (Sigma). The MTT test is based on the conversion of MTT to blue formasan crystals by viable cells. 5 mg/ml MIT reagent was added to each well (1:10 final dilution in each well). Cells were incubated for 1 hour at 37° C. and 5% CO2. Excess MIT was removed, and remaining formasan crystals were dissolved in 50 ul DMSO and were quantified in Elisa reader. The wavelength of the measurement of formasan product was 550 nm and the reference wavelength was 620 nm.
(§2) (a) PC12 and SK-N-SH Cells were incubated with 3 different concentrations of MPP+(125, 250, and 500 μM) or in growth medium lacking serum for 48 and 72 hours.
(§3) (b) Various drug combinations at various drug ratios as stated above were tested. The concentrations used were as follows: ropinirole, 400 μM, 200 μM, 100 μM, 50 μM; rasagiline, 400 μM, 200 μM, 100 μM, 50 μM, 10 μM; pramipexole, 400 μM, 200 μM, 100 μM, 50 μM; selegiline, 100, 50 μM, 10 μM, 1. Cell protection was detected by MTT.
(§4) The combinations used to treat serum-free medium induced apoptosis were ropinirole, 200 μM: rasagiline, 50 μM; ropinirole, 100 μM: rasagiline, 10 μM (FIG. 1A); pramipexole, 200 μM selegiline, 50 μM; pramipexole, 100 μM: selegiline, 10 μM (FIG. 1B); ropinirole, 200 μM: selegiline, 50 μM; and ropinirole, 100 μM: selegiline, 10 μM (FIG. 1C). […]

PC12 cells [2] = test: In vitro neuroprotection assay, MPP+ induced apoptosis, MTT test; assay type: cell-based, rat; conditions: MPP+ treated PC12 cells, drugs alone or as DRA + MAO inhibitor combination
Protocol: as §1, §2, §3, §4

MPTP treated mice [3] = test: Striatal dopamine levels in MPTP treated mice (HPLC); assay type: in vivo; conditions: for dose required to restore dopamine levels when administered alone: MPTP challenged mice, data not shown
Protocol: Striatum tissue samples were homogenized in ice in 500 ul homogenization buffer (0.1M perchloric acid, 0.02% EDTA and 1% ETOH) using OMNI Tip homogenizing kit of OMNI International (intermediate speed, 3×10 seconds with 5 seconds intervals). The homogenates were sonicated for 5 minutes then centrifuged at 15,000 RPM at 4° C. for 15 min. The supernatants were transferred into fresh tubes and Dopamine content was analyzed by HPLC.
Saline-injected mice are used as control (naïve mice).

MPTP treated mice [4] = test: Locomotion activity by Rota rod in MPTP treated mice; assay type: in vivo; conditions: day 5, MPTP alone
Protocol: Saline-injected mice are used as control (naïve mice). Mice were treated according to the following plan:
FIGS. 3A-B show the locomotion activity as tested by Rota rod latency (FIG. 3A) and Rota rod distance (FIG. 3B) on day 5 of the study (5 drug administrations).

Structure (SMILES)	neuroprotection effect / cell survival (% viable cells) (PC12 cells [1])	neuroprotection effect / cell survival (% viable cells) (PC12 cells [2])	dose required to restore dopamine levels when administered alone (MPTP treated mice [3])	other results
C#CCN[C@@H]1CCc2ccccc21 [rasagiline]	the effect on neuroprotection was minor	the effect on neuroprotection was minor	at least 0.5 mg/kg	increase in dopamine levels (MPTP treated mice [3]; high doses alone: 0.1 mg/kg rasagiline, 1 mg/kg pramipexole): significant but small increase; restoration of dopamine levels (MPTP treated mice [3]; low doses: rasagiline 0.05 mg/kg, pramipexole 0.5 mg/kg, alone or combined): did not cause a significant restoration of dopamine levels
CCCN(CCC)CCc1cccc2c1CC(=O)N2 [ropinirole]	the effect on neuroprotection was minor	the effect on neuroprotection was minor		
C#CCN(C)[C@H](C)Cc1ccccc1 [selegiline]	the effect on neuroprotection was minor	the effect on neuroprotection was minor		
CCCN[C@H]1CCc2nc(N)sc2C1 [pramipexole]			higher than 1 mg/kg	
CN1CC=C(c2ccccc2)CC1 [MPTP, N-methyl-4-phenyl-1,2,3,6-tetrahydropyridine]				decrease in locomotion activity (MPTP treated mice [4]): about 30%; depletion in dopamine levels relative to naïve mice (MPTP treated mice [3]; MPTP treatment alone): over 70%
